According to patent publication US5814488A (priority 1993, dated 1998):
≈ marks a conversion by molar mass, not a printed value. Read-outs that look alike come from different tables or passages of the source.

Key:
Escherichia coli = test: Comparison of MIC and MBC (Tables 5 and 6); format: cell-based
Text: (§1) […]. […] […]

Klebsiella pneumoniae = test: Comparison of MIC and MBC (Tables 5 and 6); format: cell-based
Text: as §1

Pseudomonas sp. = test: Comparison of MIC and MBC (Tables 5 and 6); format: cell-based; details: Pseudomonas sp.
Text: as §1

S. aureus = test: Comparison of MIC and MBC (Tables 5 and 6); format: cell-based; details: for MBC range: in µg/mL (unit assumed)
Text: as §1

Shigella = test: Comparison of MIC and MBC (Tables 5 and 6); format: cell-based
Text: as §1

[1] = comparison value for MCR, source not stated in block, cited from earlier work
[2] = clinical use; cited from earlier work
[3] = Ototoxicity to guinea pig: cochleatoxicity
[4] = Nephrotoxicity to rat after i.m. administration; details: gentamicin at 150 MKD and 100 MKD from seventh day
[5] = Table 5, 20 strains, unit assumed
[6] = Table 6, 20 strains, in µg/mL (unit assumed)
[7] = Table 6, 20 strains, unit assumed
[8] = Table 5, number 2, unit assumed
[9] = Table 5, S. aureus, 31 strains, unit assumed
[10] = Table 5, 10 strains, unit assumed

NC[C@H]1O[C@H](O[C@H]2[C@H](O)[C@@H](O[C@H]3O[C@H](CO)[C@@H](O)[C@H](N)[C@H]3O)[C@H](N)C[C@@H]2N)[C@H](O)[C@@H](O)[C@@H]1O [Kanamicin, Kanamycin]
MBC (Escherichia coli; read-out: MBC90): 8 µg/mL (≈ 16.5 µM) | MBC (Escherichia coli; read-out: MBC range): 0.5 to 128 µg/mL (≈ 1.03 to 264 µM) | MBC (Klebsiella pneumoniae; read-out: MBC90): 4 µg/mL (≈ 8.26 µM) | MBC (Klebsiella pneumoniae; read-out: MBC range): 0.25 to 4 µg/mL (≈ 0.516 to 8.26 µM) | MBC (Pseudomonas sp.; Table 6, 20 strains, read-out: MBC90): 128 µg/mL (≈ 264 µM) | MBC (Pseudomonas sp.; Table 6, 20 strains, read-out: MBC range): 2 to 256 µg/mL (≈ 4.13 to 528 µM) | MBC (S. aureus; Staphylococcus aureus, read-out: MBC90): 64 µg/mL (≈ 132 µM) | MBC range (S. aureus; Table 6, S. aureus, 31 strains): 0.125-128 | MBC (Shigella; Table 6, 10 strains, read-out: MBC90): 2 µg/mL (≈ 4.13 µM) | MBC (Shigella; Table 6, 10 strains, read-out: MBC range): 0.5 to 4 µg/mL (≈ 1.03 to 8.26 µM)

CNC[C@@H]1CC[C@@H](N)[C@@H](O[C@H]2[C@H](O)[C@@H](O[C@H]3OC[C@](C)(O)[C@H](NC)[C@H]3O)[C@H](N)C[C@@H]2N)O1 [MCR, Micronomicin]
dosage of general safety ([1]; 129600 min): 25 MKD | dosage showing apparent intoxication [1]: 63 MKD

Gentamicin
MBC50 (Escherichia coli; [5]): 0.5 µg/mL | MBC90 (Escherichia coli; [5]): 1 µg/mL | MIC50 (Escherichia coli; [5]): 0.125 µg/mL | MIC90 (Escherichia coli; [5]): 0.25 µg/mL | MBC range (Escherichia coli; [6]): 0.125-8 | MBC90 (Escherichia coli; [7]): 1 µg/mL | MBC50 (Klebsiella pneumoniae; [5]): 0.25 µg/mL | MBC90 (Klebsiella pneumoniae; [5]): 1 µg/mL | MIC50 (Klebsiella pneumoniae; [5]): 0.125 µg/mL | MIC90 (Klebsiella pneumoniae; [5]): 0.25 µg/mL | MBC range (Klebsiella pneumoniae; [6]): 0.062-2 | MBC90 (Klebsiella pneumoniae; [7]): 1 µg/mL | MBC50 (Pseudomonas sp.; [8]): 2 µg/mL | MBC90 (Pseudomonas sp.; [8]): 8 µg/mL | MIC50 (Pseudomonas sp.; [8]): 2 µg/mL | MIC90 (Pseudomonas sp.; [8]): 4 µg/mL | MBC range (Pseudomonas sp.; [6]): 0.5-16 | MBC90 (Pseudomonas sp.; [7]): 8 µg/mL | MBC50 (S. aureus; [9]): 0.5 µg/mL | MBC90 (S. aureus; [9]): 2 µg/mL | MIC50 (S. aureus; [9]): 0.125 µg/mL | MIC90 (S. aureus; [9]): 0.5 µg/mL | MBC range (S. aureus; Table 6, S. aureus, 31 strains): 0.062 | MBC90 (S. aureus; Table 6, S. aureus, 31 strains, unit assumed): 2 µg/mL | MBC50 (Shigella; [10]): 0.25 µg/mL | MBC90 (Shigella; [10]): 1 µg/mL | MIC90 (Shigella; [10]): 0.25 µg/mL | MBC range (Shigella; Table 6, 10 strains, in µg/mL (unit assumed)): 0.125-1 | MBC90 (Shigella; Table 6, 10 strains, unit assumed): 1 µg/mL | side-effects [2]: side-effects of ototoxicity and nephrotoxicity | hair cell morphology ([3]; high dosage): large number of necrotized hair cell, even stand cell and nerve cell were observed | auditory function ([3]; high dosages): nearly all the auditory function of the animals were lost | hair cell morphology ([3]; low and middle dosages): scattered necrotized hair cell and scar formation were observed | ABR threshold ([3]; middle dosages): increases of ABR threshold were observed | dead animals [4]: gradually increased
